The source of these data is US10450301B2, “Apoptosis signal-regulating kinase 1 inhibitors and methods of use thereof” (ENANTA PHARMACEUTICALS, INC., priority 2017, dated 2019).

Sequence of ASK1 (Q99683 whole entry): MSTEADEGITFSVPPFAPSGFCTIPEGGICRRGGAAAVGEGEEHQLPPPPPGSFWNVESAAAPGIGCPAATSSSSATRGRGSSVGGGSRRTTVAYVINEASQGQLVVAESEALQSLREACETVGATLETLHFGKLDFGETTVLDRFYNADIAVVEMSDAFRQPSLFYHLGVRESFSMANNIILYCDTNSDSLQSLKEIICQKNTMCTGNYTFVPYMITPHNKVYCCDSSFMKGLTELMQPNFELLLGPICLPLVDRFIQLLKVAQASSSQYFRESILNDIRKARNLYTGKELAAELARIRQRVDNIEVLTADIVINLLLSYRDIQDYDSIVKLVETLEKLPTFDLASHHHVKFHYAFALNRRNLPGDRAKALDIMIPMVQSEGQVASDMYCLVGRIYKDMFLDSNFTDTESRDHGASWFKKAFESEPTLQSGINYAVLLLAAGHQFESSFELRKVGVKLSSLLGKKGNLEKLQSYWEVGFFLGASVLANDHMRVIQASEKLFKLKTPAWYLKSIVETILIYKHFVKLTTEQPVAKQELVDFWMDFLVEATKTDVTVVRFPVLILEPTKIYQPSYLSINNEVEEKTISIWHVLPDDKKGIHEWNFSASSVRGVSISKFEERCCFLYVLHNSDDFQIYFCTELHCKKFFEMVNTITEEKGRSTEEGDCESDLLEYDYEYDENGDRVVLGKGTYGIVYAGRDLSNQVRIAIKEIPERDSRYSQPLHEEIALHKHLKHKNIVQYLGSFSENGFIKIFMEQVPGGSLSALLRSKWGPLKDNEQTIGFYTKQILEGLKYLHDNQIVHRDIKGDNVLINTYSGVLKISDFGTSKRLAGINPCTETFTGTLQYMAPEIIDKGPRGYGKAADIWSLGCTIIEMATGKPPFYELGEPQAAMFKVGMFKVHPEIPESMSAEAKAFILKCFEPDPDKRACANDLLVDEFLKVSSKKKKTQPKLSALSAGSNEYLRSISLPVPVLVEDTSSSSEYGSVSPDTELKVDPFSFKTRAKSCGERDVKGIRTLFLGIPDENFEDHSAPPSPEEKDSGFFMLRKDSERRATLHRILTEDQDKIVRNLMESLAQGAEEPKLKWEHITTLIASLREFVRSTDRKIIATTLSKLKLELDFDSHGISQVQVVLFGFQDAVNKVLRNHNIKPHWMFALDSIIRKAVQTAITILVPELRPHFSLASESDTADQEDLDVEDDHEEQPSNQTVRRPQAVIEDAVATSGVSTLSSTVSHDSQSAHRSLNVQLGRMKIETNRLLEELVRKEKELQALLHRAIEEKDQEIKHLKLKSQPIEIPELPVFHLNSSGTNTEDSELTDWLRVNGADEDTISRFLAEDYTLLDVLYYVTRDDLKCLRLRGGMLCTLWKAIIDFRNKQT

This assay has as its target ASK1 (Homo sapiens (Human), UniProt Q99683). The experiment in a line: HTRF KinEASE Assay (TR-FRET, STK3 peptide substrate), inhibition of ASK1. The assay is classed as biochemical. The following applies: 5 nM ASK1 kinase, 1 μM STK3 peptide substrate, 100 μM ATP, 3 hours; compound 0 to 10 μM. Here is the method: Assay HTRF® KinEASE™ Assay
ASK1 was purchased from Thermofisher (Catalogue # PV4011), ATP was purchased from Sigma (Catalogue # A7699), HI-TRF® KinEASE™ Assay System was obtained from Cisbio (Bedford, Mass.). […] HTRF® KinEASE™-STK is a generic method for measuring serine/threonine kinase activities using a time-resolved fluorescence resonance energy transfer (TR-FRET) immunoassay. […] 100 Um ATP is added to start kinase reaction and incubated for 3 hours. The STK3-antibody labeled with Eu^3+-Cryptate and 125 Nm streptavidin-XL665 are mixed in a single addition with stop reagents provided by the Cisbio kit used to stop the kinase reaction. […] The resulting TR-FRET is proportional to the phosphorylation level. Staurosporine was used as the positive control. IC50 was determined by Xlfit 5.3.
By using above method, the inhibition of ASK1 was evaluated for the compounds of Formula (I).
A general note: Time-resolved FRET reads energy transfer from a long-lived donor to a nearby acceptor.
`CC(C)n1nnnc1-c1cccc(NC(=O)c2cc3c(cn2)CCN(C(=O)N(C)C)C3)n1` [Example 116] gave a half-maximal inhibitory concentration (IC50) of 1 to 10 nM.

The compound `C[C@H](CO)n1nnnc1-c1cccc(NC(=O)c2cc3c(cn2)CCN(C(=O)N2CCC2)C3)n1` [Example 185, (R)-6-(azetidine-1-carbonyl)-N-(6-(1-(1-hydroxypropan-2-yl)-1H-tetrazol-5-yl)pyridin-2-yl)-5,6,7,8-tetrahydro-2,6-naphthyridine-3-carboxamide] registered a concentration for half-maximal inhibition (IC50) of 1 to 10 nM.

As for `C[C@H](CO)n1nnnc1-c1cccc(NC(=O)c2cc3c(cn2)CN(C(=O)OCc2ccccc2)C3)n1` [Example 178], the IC50 was 1 to 10 nM.

With `C[C@H](CO)n1nnnc1-c1cccc(NC(=O)c2cc3c(cn2)CCN(C(=O)OC2CCCC2)C3)n1` [Example 156], the IC50 lay in the range of 1 to 10 nM.

The compound `CCCOC(=O)N1CCc2cnc(C(=O)Nc3cccc(-c4nnnn4[C@H](C)CO)n3)cc2C1` [Example 160] came in with an IC50 of 1 to 10 nM.

In the case of `C[C@H](CO)n1nnnc1-c1cccc(NC(=O)c2cc3c(cn2)CCN(C(=O)NCCC(F)(F)F)C3)n1` [Example 183], the IC50 lay in the range of 1 to 10 nM.

Compound `CC(=O)OC[C@@H](C)n1nnnc1-c1cccc(NC(=O)c2cc3c(cn2)CCN(C(=O)OC(C)(C)C)C3)n1` [Example 147, tert-butyl (R)-7-((6-(1-(1-acetoxypropan-2-yl)-1H-tetrazol-5-yl)pyridin-2-yl)carbamoyl)-3,4-dihydro-2,6-naphthyridine-2(1H)-carboxylate] gave an IC50 of 100 to 1000 nM.

For `C[C@H](CO)n1nnnc1-c1cccc(NC(=O)c2cc3c(cn2)CCN(C(=O)C2CCC2)C3)n1` [Example 124], the 50% inhibitory concentration (IC50) was in the range of 1 to 10 nM.

The compound `CC(C)n1cnnc1-c1cccc(NC(=O)c2cc3c(cc2F)CCN(C(=O)NC2CCCC2)C3)n1` [Example 51] returned an IC50 of 1 to 10 nM.

In turn, `CC(C)n1nnnc1-c1cccc(NC(=O)c2cc3c(cc2F)CCNC3)n1` [Example 58] gave an IC50 of 100 to 1000 nM.

Compound `CCOC(=O)N1Cc2ccc(C(=O)Nc3cccc(-c4nncn4C(C)C)n3)cc2C1` [Example 7, ethyl 5-((6-(4-isopropyl-4H-1,2,4-triazol-3-yl)pyridin-2-yl)carbamoyl)isoindoline-2-carboxylate] gave an IC50 of 100 to 1000 nM.

Compound `C[C@H](CO)n1nnnc1-c1cccc(NC(=O)c2cc3c(cn2)CCN(C(=O)N(C)C2CCCC2)C3)n1` [Example 184, (R)—N2-cyclopentyl-N7-(6-(1-(1-hydroxypropan-2-yl)-1H-tetrazol-5-yl)pyridin-2-yl)-N2-methyl-3,4-dihydro-2,6-naphthyridine-2,7(1H)-dicarboxamide] yielded a 50% inhibitory concentration (IC50) greater than 1000 nM.

`CCN(C)C(=O)N1CCc2cc(F)c(C(=O)Nc3cccc(-c4nncn4C(C)C)n3)cc2C1` [Example 45] came in with an IC50 of 1 to 10 nM.

`CCOC(=O)N1CCc2ccc(C(=O)Nc3cccc(-c4nncn4C(C)C)n3)cc2C1` [Example 36] displayed an IC50 of 10 to 100 nM.

`COCCCN1CCc2ccc(C(=O)Nc3cccc(-c4nncn4C(C)C)n3)cc2C1` [Example 38, N-(6-(4-isopropyl-4H-1,2,4-triazol-3-yl)pyridin-2-yl)-2-(3-methoxypropyl)-1,2,3,4-tetrahydroisoquinoline-7-carboxamide] displayed an IC50 of 100 to 1000 nM.

Consider `CC(C)n1nnnc1-c1cccc(NC(=O)c2cc3c(cc2F)CCN(C(=O)OC2CCCC2)C3)n1` [Example 57], for which the IC50 was in the range of 10 to 100 nM.

Compound `CC(C)n1nnnc1-c1cccc(NC(=O)c2cc3c(cn2)CCN(C(=O)N2CCS(=O)(=O)CC2)C3)n1` [Example 137] came in with an IC50 of 1 to 10 nM.

Compound `C[C@H](CO)n1nnnc1-c1cccc(NC(=O)c2cc3c(cn2)CCN(C(=O)NC2COC2)C3)n1` [Example 186] returned a 50% inhibitory concentration (IC50) of 10 to 100 nM.

The compound `C=CCCOC(=O)N1CCc2ccc(C(=O)Nc3cccc(-c4nncn4C(C)C)n3)cc2C1` [Example 64] yielded a concentration for half-maximal inhibition (IC50) of 10 to 100 nM.

Compound `CC(C)c1nnnn1-c1cccc(NC(=O)c2cc3c(cc2F)CCN(C(=O)N(C)CCC(F)(F)F)C3)n1` [Example 99] had an IC50 of 100 to 1000 nM.

The compound `CC(C)n1nnnc1-c1cccc(NC(=O)c2cc3c(cc2F)CCN(C(=O)N(C)CC(F)(F)F)C3)n1` [Example 77] displayed an IC50 of 10 to 100 nM.

Regarding `CCN(C)C(=O)N1Cc2ccc(C(=O)Nc3cccc(-c4nncn4C(C)C)n3)cc2C1` [Example 5, N2-ethyl-N5-(6-(4-isopropyl-4H-1,2,4-triazol-3-yl)pyridin-2-yl)-N2-methylisoindoline-2,5-dicarboxamide], the IC50 is 100 to 1000 nM.

On to `CC(C)n1nnnc1-c1cccc(NC(=O)c2cc3c(cc2F)CCN(C(=O)N2CCOCC2)C3)n1` [Example 92], for which the IC50 was 10 to 100 nM.

`C[C@H](CO)n1nnnc1-c1cccc(NC(=O)c2cc3c(cn2)CCN(C(=O)OC2CC4CCC(C2)N4C)C3)n1` (stereo partly drawn) [Example 190, 8-methyl-8-azabicyclo[3.2.1]octan-3-yl 7-((6-(1-((R)-1-hydroxypropan-2-yl)-1H-tetrazol-5-yl)pyridin-2-yl)carbamoyl)-3,4-dihydro-2,6-naphthyridine-2(1H)-carboxylate] showed an IC50 of 1 to 10 nM.

In turn, `COCCC(=O)N1CCc2cc(F)c(C(=O)Nc3cccc(-c4nnnn4C(C)C)n3)cc2C1` [Example 28] registered an IC50 of 10 to 100 nM.

In turn, `CC1c2cc(C(=O)Nc3cccc(-c4nnnn4C(C)C)n3)c(F)cc2CCN1S(=O)(=O)CCC(F)(F)F` (stereo not shown) [Example 70] returned an IC50 of 10 to 100 nM.

Turning to `CC(C)n1nnnc1-c1cccc(NC(=O)c2cc3c(cc2F)CCN(S(=O)(=O)CC2CC2)C3)n1` [Example 87], the IC50 was in the range of 10 to 100 nM.

`CC(C)c1nnnn1-c1cccc(NC(=O)c2cc3c(cc2F)CCNC3)n1` [Example 71] displayed an IC50 greater than 1000 nM.

In turn, “2-(N,N-dimethylsulfamoyl)-N-(6-(4-isopropyl-4H-1,2,4-triazol-3-yl)pyridin-2-yl)isoindoline-5-carboxamide [Example 10]” had an IC50 greater than 1000 nM.

Take `CC(C)CN1CCc2cnc(C(=O)Nc3cccc(-c4nnnn4[C@H](C)CO)n3)cc2C1` [Example 164]: the IC50 was in the range of 1 to 10 nM.

`CC(C)n1nnnc1-c1cccc(NC(=O)c2ccc3c(c2)CN(C(=O)N(C)C)C3)n1` [Example 12] had an IC50 of 100 to 1000 nM.

In turn, `C[C@H](CO)n1nnnc1-c1cccc(NC(=O)c2cc3c(cc2F)CCN(C(=O)N(C)CC(F)(F)F)C3)n1` [Example 75, (R)-6-fluoro-N7-(6-(1-(1-hydroxypropan-2-yl)-1H-tetrazol-5-yl)pyridin-2-yl)-N2-methyl-N2-(2,2,2-trifluoroethyl)-3,4-dihydroisoquinoline-2,7(1H)-dicarboxamide] showed an IC50 of 10 to 100 nM.

For `CC(C)CC(=O)N1CCc2cnc(C(=O)Nc3cccc(-c4nnnn4[C@H](C)CO)n3)cc2C1` [Example 151], the IC50 is 1 to 10 nM.

`CC(C)n1cnnc1-c1cccc(NC(=O)c2cc3c(cc2F)CCN(S(=O)(=O)CCC(F)(F)F)C3)n1` [Example 46] yielded an IC50 of 1 to 10 nM.

As to `CC(C)n1nnnc1-c1cccc(NC(=O)c2cc3c(cn2)CCN(C(=O)N2CCCC2)C3)n1` [Example 173], the IC50 is 1 to 10 nM.

With `CC(C)n1nnnc1-c1cccc(NC(=O)c2cc3c(cc2F)CCN(c2ccccc2)C3)n1` [Example 54, 6-fluoro-N-(6-(1-isopropyl-1H-tetrazol-5-yl)pyridin-2-yl)-2-phenyl-1,2,3,4-tetrahydroisoquinoline-7-carboxamide], the IC50 lay in the range of 10 to 100 nM.

In turn, `C[C@H](CO)n1nnnc1-c1cccc(NC(=O)c2cc3c(cc2F)CCN(S(=O)(=O)CCC(F)(F)F)C3)n1` [Example 82] showed an IC50 of 1 to 10 nM.

Compound `CCOC(=O)N1CCc2cnc(C(=O)Nc3cccc(-c4nnnn4C(C)C)n3)cc2C1` [Example 118] yielded a half-maximal inhibitory concentration (IC50) of 1 to 10 nM.

`CC(C)n1nnnc1-c1cccc(NC(=O)c2cc3c(cn2)CCN(C(=O)N(C)C2CCCC2)C3)n1` [Example 112] showed an IC50 of 10 to 100 nM.

Regarding `C[C@H](CO)n1nnnc1-c1cccc(NC(=O)c2cc3c(cn2)CCN(C(=O)N(C)C)C3)n1` [Example 168], the IC50 is 1 to 10 nM.

`CC(C)n1nnnc1-c1cccc(NC(=O)c2cc3c(cn2)CCN(C(=O)N(C)CCC(F)(F)F)C3)n1` [Example 114] yielded an IC50 of 10 to 100 nM.

As for `C[C@H](CO)n1nnnc1-c1cccc(NC(=O)c2cc3c(cn2)CCN(C(=O)c2ccc(F)cc2)C3)n1` [Example 121], the IC50 is 1 to 10 nM.

`C[C@H](CO)n1nnnc1-c1cccc(NC(=O)c2cc3c(cn2)CCN(C(=O)OCC(C)(C)C)C3)n1` [Example 159] gave an IC50 of 1 to 10 nM.

Take `C=CCOC(=O)N1CCc2ccc(C(=O)Nc3cccc(-c4nncn4C(C)C)n3)cc2C1` [Example 59, allyl 7-((6-(4-isopropyl-4H-1,2,4-triazol-3-yl)pyridin-2-yl)carbamoyl)-3,4-dihydroisoquinoline-2(1H)-carboxylate]: the IC50 fell in the range of 10 to 100 nM.

`C[C@H](CO)n1nnnc1-c1cccc(NC(=O)c2cc3c(cn2)CCN(Cc2ccccc2)C3)n1` [Example 133] had a concentration for half-maximal inhibition (IC50) of 1 to 10 nM.

In turn, `CC(C)n1cnnc1-c1cccc(NC(=O)c2ccc3c(c2)CN(C(=O)OC(C)(C)C)CC3)n1` [Example 183a] displayed a half-maximal inhibitory concentration (IC50) greater than 1000 nM.

`CC(=O)OC[C@@H](C)n1nnnc1-c1cccc(NC(=O)c2cc3c(cc2F)CCNC3)n1` [Example 81] displayed an IC50 greater than 1000 nM.

For `CC(C)NC(=O)N1CCc2cnc(C(=O)Nc3cccc(-c4nnnn4[C@H](C)CO)n3)cc2C1` [Example 132], the half-maximal inhibitory concentration (IC50) lay within 1 to 10 nM.

`CC(C)n1cnnc1-c1cccc(NC(=O)c2ccc3c(c2)CN(C(=O)NC2CCCC2)CC3)n1` [Example 61]: the IC50 is 10 to 100 nM.

In general, IC50 refers to the concentration that gives 50% inhibition.
